These results are taken from ChEMBL document CHEMBL1287781, “Novel lipophilic 7H-pyrido[1,2,3-de]-1,4-benzoxazine-6-carboxylic acid derivatives as potential antitumor agents: improved synthesis and in vitro evaluation” (Bioorg Med Chem, 2010).

The source made the active and inactive calls. The rule behind the calls is not given here.

As a reminder, the IC50 is the concentration needed to halve the response being measured.

For one data set, the system named is A549. The data set is described as follows: Anticancer activity against human A549 after 5 days by MTT assay. In kind it is functional, cell-based. Conditions: A549, 120 h. Background: Tetrazolium assays rely on reduction of a dye to a coloured formazan, in cell work by metabolically active cells.
In turn, `CCCCCCCCCCCC(=O)OCOC(=O)c1cn2c3c(c(N4CCN(C)CC4)c(F)cc3c1=O)OC[C@@H]2C` had an IC50 of 65 µM.
As to `CCCCCCCCCCCCNC(=O)c1cn2c3c(c(N4CCN(C)CC4)c(F)cc3c1=O)OC[C@@H]2C`, the IC50 is 5 µM.
In turn, `CCCCCC(=O)OCOC(=O)c1cn2c3c(c(N4CCN(C)CC4)c(F)cc3c1=O)OC[C@@H]2C` displayed an IC50 of 235 µM.
For the molecule `CCCCCCCNC(=O)c1cn2c3c(c(N4CCN(C)CC4)c(F)cc3c1=O)OC[C@@H]2C`, the IC50 was determined as 3 µM.
Still for that read-out and setting: with `CCCCCCCCCCCCCCCC(=O)OCOC(=O)c1cn2c3c(c(N4CCN(C)CC4)c(F)cc3c1=O)OC[C@@H]2C` the figure was 46 µM; with `CCCCCCCC(=O)OCOC(=O)c1cn2c3c(c(N4CCN(C)CC4)c(F)cc3c1=O)OC[C@@H]2C`, 289 µM; with `CCCCCCNC(=O)c1cn2c3c(c(N4CCN(C)CC4)c(F)cc3c1=O)OC[C@@H]2C`, 6 µM.
The molecule `CCCCCCCCCCNC(=O)c1cn2c3c(c(N4CCN(C)CC4)c(F)cc3c1=O)OC[C@@H]2C` yielded an IC50 of 3 µM.

System in the next data set: not listed separately
Put plainly: Anticancer activity against human U373MG after 5 days by MTT assay. The note with it: U373 MG, 120 h. In kind it is functional, cell-based, U-373MG ATCC.
Take `CCCCCCCCCCCC(=O)OCOC(=O)c1cn2c3c(c(N4CCN(C)CC4)c(F)cc3c1=O)OC[C@@H]2C`: half-maximal inhibition (IC50) was put at 0.2 µM.
`CCCCCCCCCCCCNC(=O)c1cn2c3c(c(N4CCN(C)CC4)c(F)cc3c1=O)OC[C@@H]2C` returned an IC50 of 5 µM.
Regarding `CCCCCC(=O)OCOC(=O)c1cn2c3c(c(N4CCN(C)CC4)c(F)cc3c1=O)OC[C@@H]2C`, the IC50 turned out to be 199 µM.
`CCCCCCCNC(=O)c1cn2c3c(c(N4CCN(C)CC4)c(F)cc3c1=O)OC[C@@H]2C` displayed an IC50 of 3 µM.
`CCCCCCCCCCCCCCCC(=O)OCOC(=O)c1cn2c3c(c(N4CCN(C)CC4)c(F)cc3c1=O)OC[C@@H]2C` yielded an IC50 of 4 µM.
The molecule `CCCCCCCC(=O)OCOC(=O)c1cn2c3c(c(N4CCN(C)CC4)c(F)cc3c1=O)OC[C@@H]2C` returned an IC50 of 243 µM.
Molecule `CCCCCCNC(=O)c1cn2c3c(c(N4CCN(C)CC4)c(F)cc3c1=O)OC[C@@H]2C` returned an IC50 of 4 µM.
`CCCCCCCCCCNC(=O)c1cn2c3c(c(N4CCN(C)CC4)c(F)cc3c1=O)OC[C@@H]2C` had an IC50 of 3 µM.

For a further data set, the system named is A549. Put plainly: Anticancer activity against human A549 by sulforhodamine B assay. The format is functional, cell-based.
Conditions: not given
For orientation: In SRB staining, fixed cells bind dye roughly in proportion to their protein.
With `C[C@H]1COc2c(N3CCN(C)CC3)c(F)cc3c(=O)c(-c4nc5ccc([N+](=O)[O-])cc5s4)cn1c23`, the IC50 is > 10 µM.

A further data set deals with MCF7. Put plainly: Anticancer activity against human MCF7 by sulforhodamine B assay. The format is functional, cell-based.
Conditions: not given
`C[C@H]1COc2c(N3CCN(C)CC3)c(F)cc3c(=O)c(-c4nc5ccc([N+](=O)[O-])cc5s4)cn1c23`: the IC50 was > 10 µM.

The subject of another data set is PC-3. The data set is described as follows: Anticancer activity against human PC3 after 5 days by MTT assay. The format is functional, cell-based. Conditions: PC-3, 120 h.
As to `CCCCCCCCCCCC(=O)OCOC(=O)c1cn2c3c(c(N4CCN(C)CC4)c(F)cc3c1=O)OC[C@@H]2C`, the IC50 is 86 µM.
For the molecule `CCCCCCCCCCCCNC(=O)c1cn2c3c(c(N4CCN(C)CC4)c(F)cc3c1=O)OC[C@@H]2C`, it took 5 µM to reach half-maximal inhibition (IC50).
In turn, `CCCCCC(=O)OCOC(=O)c1cn2c3c(c(N4CCN(C)CC4)c(F)cc3c1=O)OC[C@@H]2C` yielded an IC50 of 207 µM.
As for `CCCCCCCNC(=O)c1cn2c3c(c(N4CCN(C)CC4)c(F)cc3c1=O)OC[C@@H]2C`, 4 µM corresponded to half-maximal inhibition (IC50).
Turning to `CCCCCCCCCCCCCCCC(=O)OCOC(=O)c1cn2c3c(c(N4CCN(C)CC4)c(F)cc3c1=O)OC[C@@H]2C`, half-maximal inhibition (IC50) was put at 56 µM.
`CCCCCCCC(=O)OCOC(=O)c1cn2c3c(c(N4CCN(C)CC4)c(F)cc3c1=O)OC[C@@H]2C` gave an IC50 of 230 µM.
`CCCCCCNC(=O)c1cn2c3c(c(N4CCN(C)CC4)c(F)cc3c1=O)OC[C@@H]2C` displayed an IC50 of 12 µM.
On the same count and under the same terms, with `CCCCCCCCCCNC(=O)c1cn2c3c(c(N4CCN(C)CC4)c(F)cc3c1=O)OC[C@@H]2C` the figure was 3 µM.

A further data set deals with U-373MG ATCC. Put plainly: Antimigratory activity against human U373MG at 0.1 uM after 6 days by phase-contrast microscopy. In kind it is functional, cell-based.
Conditions: not given
Consider `CCCCCCCCCCCC(=O)OCOC(=O)c1cn2c3c(c(N4CCN(C)CC4)c(F)cc3c1=O)OC[C@@H]2C`, for which the result was inactive.

Another data set has as its system MCF7. The data set is described as follows: Anticancer activity against human MCF7 after 5 days by MTT assay. Conditions: MCF7, 120 h. The format is functional, cell-based.
In the case of `CO/N=C(/CN1CCN(c2cc3c(cc2F)c(=O)c(C(=O)O)cn3C2CC2)CC1)c1ccc(Cl)s1`, the IC50 amounted to 2.9 µM.
Take `CCCCCCCCCCCC(=O)OCOC(=O)c1cn2c3c(c(N4CCN(C)CC4)c(F)cc3c1=O)OC[C@@H]2C`: inhibition was half-maximal at 0.3 µM (IC50).
`CCCCCCCCCCCCNC(=O)c1cn2c3c(c(N4CCN(C)CC4)c(F)cc3c1=O)OC[C@@H]2C` showed an IC50 of 10 µM.
For `CCCCCC(=O)OCOC(=O)c1cn2c3c(c(N4CCN(C)CC4)c(F)cc3c1=O)OC[C@@H]2C`, the IC50 stood at 183 µM.
As to `CCCCCCCNC(=O)c1cn2c3c(c(N4CCN(C)CC4)c(F)cc3c1=O)OC[C@@H]2C`, the IC50 was determined as 5 µM.
The molecule `CCCCCCCCCCCCCCCC(=O)OCOC(=O)c1cn2c3c(c(N4CCN(C)CC4)c(F)cc3c1=O)OC[C@@H]2C` displayed an IC50 of 8 µM.
Consider `CCCCCCCC(=O)OCOC(=O)c1cn2c3c(c(N4CCN(C)CC4)c(F)cc3c1=O)OC[C@@H]2C`, for which the IC50 is 238 µM.
Consider `CCCCCCNC(=O)c1cn2c3c(c(N4CCN(C)CC4)c(F)cc3c1=O)OC[C@@H]2C`, for which the IC50 came out at 16 µM.
Regarding `CCCCCCCCCCNC(=O)c1cn2c3c(c(N4CCN(C)CC4)c(F)cc3c1=O)OC[C@@H]2C`, the IC50 was 5 µM.

The subject of another data set is U-373MG ATCC. The data set is described as follows: Antimigratory activity against human U373MG at 1 uM after 6 days by phase-contrast microscopy.
Conditions: not given
The format is functional, cell-based.
With `CCCCCCCCCCCC(=O)OCOC(=O)c1cn2c3c(c(N4CCN(C)CC4)c(F)cc3c1=O)OC[C@@H]2C`, the outcome was inactive.

The next data set deals with LoVo. Put plainly: Anticancer activity against human LoVo cells after 5 days by MTT assay. The note with it: 120 h. The format is functional, cell-based.
For `CCCCCCCCCCCC(=O)OCOC(=O)c1cn2c3c(c(N4CCN(C)CC4)c(F)cc3c1=O)OC[C@@H]2C`, it took 0.3 µM to reach half-maximal inhibition (IC50).
Still for that read-out and setting: with `CCCCCCCCCCCCNC(=O)c1cn2c3c(c(N4CCN(C)CC4)c(F)cc3c1=O)OC[C@@H]2C` the figure was 3 µM.
Turning to `CCCCCC(=O)OCOC(=O)c1cn2c3c(c(N4CCN(C)CC4)c(F)cc3c1=O)OC[C@@H]2C`, inhibition was half-maximal at 162 µM (IC50).
Regarding `CCCCCCCNC(=O)c1cn2c3c(c(N4CCN(C)CC4)c(F)cc3c1=O)OC[C@@H]2C`, the IC50 came to 1 µM.
For the molecule `CCCCCCCCCCCCCCCC(=O)OCOC(=O)c1cn2c3c(c(N4CCN(C)CC4)c(F)cc3c1=O)OC[C@@H]2C`, the IC50 worked out at 6 µM.
`CCCCCCCC(=O)OCOC(=O)c1cn2c3c(c(N4CCN(C)CC4)c(F)cc3c1=O)OC[C@@H]2C`: the IC50 amounted to 209 µM.
`CCCCCCNC(=O)c1cn2c3c(c(N4CCN(C)CC4)c(F)cc3c1=O)OC[C@@H]2C` gave an IC50 of 5 µM.
On the same count and under the same terms, with `CCCCCCCCCCNC(=O)c1cn2c3c(c(N4CCN(C)CC4)c(F)cc3c1=O)OC[C@@H]2C` the figure was 3 µM.

System in another data set: not listed separately
Put plainly: Chemical stability of the compound in phosphate buffer at pH 7.4 after 7 days. In kind it is physicochemical. The note with it: read-out: Stability.
With `CCCCCCCCCCCC(=O)OCOC(=O)c1cn2c3c(c(N4CCN(C)CC4)c(F)cc3c1=O)OC[C@@H]2C`, the remaining at 168 h is > 91%.
Same read-out and setting: with `CCCCCCCCCCCCCCCC(=O)OCOC(=O)c1cn2c3c(c(N4CCN(C)CC4)c(F)cc3c1=O)OC[C@@H]2C` the figure was > 93%; with `CCCCCCCC(=O)OCOC(=O)c1cn2c3c(c(N4CCN(C)CC4)c(F)cc3c1=O)OC[C@@H]2C`, > 90%.
Same read-out and setting: with `CCCCCCNC(=O)c1cn2c3c(c(N4CCN(C)CC4)c(F)cc3c1=O)OC[C@@H]2C` the figure was 100%.

System in another data set: not listed separately
Put plainly: Toxicity in ip dosed B6D2F1 mouse after 28 days. In kind it is organism-based. Conditions: in vivo.
In the case of `CCCCCC(=O)OCOC(=O)c1cn2c3c(c(N4CCN(C)CC4)c(F)cc3c1=O)OC[C@@H]2C`, the MTD at 672 h was > 80 mg/kg.
Turning to `CCCCCCCC(=O)OCOC(=O)c1cn2c3c(c(N4CCN(C)CC4)c(F)cc3c1=O)OC[C@@H]2C`, the MTD at 672 h was > 80 mg/kg.
